The values below are quoted from earlier work in patent US11872302B2, “Product for dyeing keratinous material, containing aminosilicone, a chromophoric compound and ester oil” (Henkel AG & Co. KGaA, priority 2019, dated 2024).

For the data set the following is noted: 25° C.

For `CCN(Cc1cccc(S(=O)(=O)O)c1)c1ccc(C(=C2C=CC(=[N+](CC)Cc3cccc(S(=O)(=O)O)c3)C=C2)c2ccccc2S(=O)(=O)[O-])cc1` [Acid Blue 9], the solubility in water result is given as “more than 20 wt. %”.
For `O=S(=O)(O)c1ccc(N=Nc2c(O)ccc3ccccc23)cc1` [Acid Orange 7, 4-[(2-hydroxy-1-naphthyl)azo]benzene sulphonate], the solubility in water result is listed as “more than 7 g/L”.
Take `O=[N+]([O-])c1cc([N+](=O)[O-])c2ccc(S(=O)(=O)O)cc2c1O` [Acid Yellow 9, 8-hydroxy-5,7-dinitro-2-naphthalenesulfonic acid]: the solubility in water entry was “above 40 g/L”.
As for `O=C(O)C1=NN(c2ccc(S(=O)(=O)O)cc2)C(=O)C1N=Nc1ccc(S(=O)(=O)O)cc1` (stereo not shown) [Acid Yellow 23, 4,5-dihydro-5-oxo-1-(4-sulfophenyl)-4-((4-sulfophenyl)azo)-1H-pyrazole-3-carboxylic acid], the “solubility in water, in words” value is given as “highly soluble in water”.
